Results on five compounds are retold here after patent EP4790048A1, “S1PR4 REGULATOR COMPOUND FOR AUTOIMMUNE DISEASE TREATMENT AND APPLICATION THEREOF” (Shengyuan Zetong (Shanghai) Pharmaceutical Co., Ltd, priority 2023, dated 2025).

Where a chain is given by its changes, count along the chain named. Like-named read-outs stand apart in the source and are kept apart here.

Series [1] concerns the target T1, S1PR4 (Homo sapiens, UniProt O95977).
T1 construct: expressed in transfected cells; host or cells: 293T
T1 sequence (O95977 1-384): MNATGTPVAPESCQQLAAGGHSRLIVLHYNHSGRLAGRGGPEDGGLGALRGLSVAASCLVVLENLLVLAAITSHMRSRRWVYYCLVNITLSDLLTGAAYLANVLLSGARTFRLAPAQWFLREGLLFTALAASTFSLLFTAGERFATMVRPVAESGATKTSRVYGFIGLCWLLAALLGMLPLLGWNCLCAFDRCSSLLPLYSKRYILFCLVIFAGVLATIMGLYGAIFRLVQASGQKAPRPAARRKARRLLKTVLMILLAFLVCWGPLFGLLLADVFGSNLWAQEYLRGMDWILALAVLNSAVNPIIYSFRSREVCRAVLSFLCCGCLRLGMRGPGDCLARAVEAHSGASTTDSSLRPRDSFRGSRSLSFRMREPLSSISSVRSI
Nature of the series: S1PR4 internalization and recovery test in S1PR4-293T cells. It counts as cell-based. The settings on record: 1 µM, 37 °C, 1.5 hours; detected immediately, 5 hours or 20 hours after treatment. The procedure: Therefore, the recovery degree of S1PR4 after internalization caused by Compound 30 was evaluated, and the recovery effect following receptor internalization caused by Compound 30 was assessed in cells with high S1PR4 expression.

Series [2] concerns the target T2, hS1P4-R-79C (Homo sapiens, UniProt O95977, R79C).
T2 construct: expressed in transfected cells; host or cells: CHO
T2 sequence (O95977 1-384 R79C): T1 sequence (O95977 1-384) with R79C
Briefly: Tango β-arrestin recruitment luciferase assay, Tango-hS1P4-R-79C-CHO (S1PR4 mutant). The format is cell-based. The following applies: 20 h drug treatment. The text has this:
(§1) The Tango assay detects ligand-dependent GPCR activity through the interaction between β-arrestin and GPCRs. […] The NTEV fragment and the tetracycline transactivator (tTA), an artificial transcription factor, are fused at the C-terminus of the GPCR, while the CTEV fragment is fused to human β-arrestin 2. To enhance the stability of the interaction between GPCR and β-arrestin, a short sequence from the C-terminus of the human arginine vasopressin receptor 2 (V2 tail) is inserted between the GPCR and NTEV. The V2 tail contains multiple GRK phosphorylation sites, which strengthen β-arrestin binding upon phosphorylation. The CTEV fragment carries the stabile point mutation S219P and is truncated at residue 221 to remove the autoinhibitory C-terminal tail. Meanwhile, β-arrestin 2 is truncated to lack the entire C-terminal tail (residues 383-410 deleted). This truncation confers robust stimulus-dependent receptor desensitization, thereby improving detection sensitivity compared with wild-type β-arrestin 2. The UAS reporter construct consists of upstream activating sequence (UAS) elements, a minimal CMV promoter, and a tTA-dependent luciferase reporter gene. Therefore, constructing Tango cells requires the co-transfection of the above three plasmids into host cells. Upon GPCR activation and β-arrestin recruitment, the TEV enzyme at the β-arrestin terminus cleaves tTA from the GPCR C-terminus. The released tTA initiates tTA-dependent luciferase transcription, and compound activity is ultimately determined by measuring luminescence intensity.
(§2) • 1) Tango cell line from was digested from the culture dish respectively. After cell counting, the cells were plated at a density of 10,000 cells per well with […] into a white opaque 96-well plate (add 60 µL D'Hanks to the surrounding wells), and incubated overnight (20 h) in a 5% CO2 incubator at 37°C. The cell density will reach approximately 90% the next day. • 2) After 20 h, 30 µL of serially diluted compound solution was added to each well. The control group was supplemented with 30 µL F12K complete medium. Each group had three replicate wells. • 3) Samples were collected after 20 h of drug treatment.
(§3) (All compounds were tested at a final concentration of 45 µM, with 9 serial dilutions at 5-fold intervals. 1 µM BAF-312 was used as the positive control for S1PR1, and 25 µM BAF-312 was used as the positive control for S1PR4.
(In general: Recruitment of arrestin is a read-out of receptor activation apart from second messengers.)

Series [3] can be described thus: Pharmacokinetic property testing in rats. The format is in vivo, SD rats. The following applies: for Tmax: 3 per group. The text has this:
In the structure-activity relationship discussion, the inventors obtained key compound 22. Based on compound 22, the polar head of the compound was modified as chiral pyrrolidine carboxylic acid, yielding selective S1PR4 agonists 30 and 67. We conducted pharmacokinetic property analyses on compounds 22, 30, and 67, respectively.

Series [4] has as its target T3, hS1P1 (Homo sapiens, UniProt P21453).
T3 construct: expressed in transfected cells; host or cells: CHO
Briefly: Tango β-arrestin recruitment luciferase assay, Tango-hS1P1-CHO. It counts as cell-based.
From the text: as §1, §2, §3

In series [5] the target is T4, S1PR3 (Homo sapiens, UniProt Q99500).
T4 construct: expressed in transfected cells
T4 sequence (Q99500 whole entry, species assumed): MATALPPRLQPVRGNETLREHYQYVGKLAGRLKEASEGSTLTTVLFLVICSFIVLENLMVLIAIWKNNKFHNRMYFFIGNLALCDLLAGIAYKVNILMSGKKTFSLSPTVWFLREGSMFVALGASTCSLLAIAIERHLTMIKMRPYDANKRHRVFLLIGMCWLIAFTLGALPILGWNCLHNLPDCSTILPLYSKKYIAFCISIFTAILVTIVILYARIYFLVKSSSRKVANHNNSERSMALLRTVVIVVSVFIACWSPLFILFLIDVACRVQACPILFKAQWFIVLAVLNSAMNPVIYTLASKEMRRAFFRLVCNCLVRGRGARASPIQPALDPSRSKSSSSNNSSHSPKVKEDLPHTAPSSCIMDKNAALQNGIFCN
Briefly: β-arrestin recruitment, PathHunter CHO-K1-S1PR3 cells. It counts as cell-based. The settings on record: mean ± SD, read-out: EC50.

Series [6] deals with T5, hS1P4 (Homo sapiens, UniProt O95977).
T5 construct: expressed in transfected cells; host or cells: CHO
T5 sequence (O95977 1-384): T1 sequence (O95977 1-384)
Nature of the series: Tango β-arrestin recruitment luciferase assay, Tango-hS1P4-CHO. The format is cell-based. The settings on record: S1PR4; Tango-S1PR4-CHO-K1 cells; mean ± SD; read-out: EC50.
From the text: as §1, §2, §3

[7] abbreviates: Sprague-Dawley, rat, in vivo, IV (1 mg/kg), male SD rats.
[8] abbreviates: Sprague-Dawley, rat, in vivo, PO (10 mg/kg), male SD rats.
[9] abbreviates: β-arrestin recruitment, 20 h drug treatment, top 45 µM, 9 serial 5-fold dilutions, positive control 1 µM BAF-312, read-out: Tango-hS1P1-CHO EC50.

T3 sequence (P21453 whole entry): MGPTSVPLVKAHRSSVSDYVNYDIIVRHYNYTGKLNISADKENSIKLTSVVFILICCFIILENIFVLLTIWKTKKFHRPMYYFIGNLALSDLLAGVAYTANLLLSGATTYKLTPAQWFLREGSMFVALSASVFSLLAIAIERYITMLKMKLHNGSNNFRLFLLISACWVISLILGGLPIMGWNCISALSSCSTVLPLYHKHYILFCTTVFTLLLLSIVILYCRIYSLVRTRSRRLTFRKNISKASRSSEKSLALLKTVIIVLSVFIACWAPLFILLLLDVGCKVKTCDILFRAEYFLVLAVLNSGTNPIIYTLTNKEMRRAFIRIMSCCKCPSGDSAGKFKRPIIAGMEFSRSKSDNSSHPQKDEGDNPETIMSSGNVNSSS

In the case of `CCc1cc(/C(C)=N/OCc2ccc(C3CCCCC3)c(C(F)(F)F)c2)ccc1CN1CC(C(=O)O)C1` [BAF312], the “S1PR4 internalization (expression of S1PR4 receptor on the cell surface)” value in series [1] is given as “cannot induce S1PR4 internalization”.

In series [2], `CCc1cc(/C(C)=N/OCc2ccc(-c3ccccc3)c(C)c2)ccc1CN1CC(C(=O)O)C1` [Compound 22, (E)-1-(2-ethyl-4-(1-((2-methyl-[1,1'-biphenyl]-4-yl)methoxy)imino)ethyl)azetidine-3-carboxylic acid] had a concentration giving a half-maximal response (EC50) of 27 nM. For the same compound, in series [3] (IV (1 mg/kg), male SD rats), the “CL_obs” value worked out at 2.08 ± 0.19 L/h/kg and the “Vss_obs” value was 0.88 ± 0.07 L/kg. Also, in series [3] (PO (10 mg/kg), male SD rats), the “CL_obs” value turned out to be 8.90 ± 3.86 L/h/kg and the “Vss_obs” value was determined as 27.73 ± 16.85 L/kg. In series [3] (setting [7]), the AUC(0-t) was found to be 476 ± 43.6 ng·h/mL, the concentration peaked (Cmax) at 995 ± 53.2 ng/mL, the half-life is 25.2 ± 1.8 min and the Tmax came to 4.8 min. In series [3] (setting [8]), the AUC(0-t) came out at 1120 ± 400 ng·h/mL, the Cmax is 544 ± 221 ng/mL, the half-life was 130 ± 57.6 min and the time of peak concentration (Tmax) was found to be 49.8 ± 17.4 min. In addition, the bioavailability in series [3] (male, Sprague-Dawley, rat, in vivo, oral, 10 mg/kg) came to 23.5%. Moreover, the “F (%)” value in series [3] (oral bioavailability, PO 10 mg/kg vs IV 1 mg/kg, male SD rats) amounted to 23.5%.

Take `CCc1cc(/C(C)=N/OCc2ccc(-c3ccccc3)c(C)c2)ccc1CNCCC(=O)O` [Compound 31]: the half-maximal effective concentration (EC50) in series [4] (setting [9]) is 128 nM; in series [2], 73.1 nM.

In the case of `CCCCCCCCCCCCC/C=C/[C@@H](O)[C@@H](N)COP(=O)(O)O` [Compound S1P, Sphingosine-1-phosphate, reference compound], the EC50 in series [4] (S1PR1, Tango-S1PR1-CHO-K1 cells, mean ± SD, read-out: EC50) turned out to be 8.52 ± 1.06 nM; in series [5], 20.6 ± 3.37 nM; in series [6] it was 100 ± 21.9 nM. Besides, in series [1], the “S1PR4 internalization (expression of S1PR4 receptor on the cell surface)” value is listed as “can induce S1PR4 internalization, with receptor expression recovering after 20 hours”.

Consider `CCc1cc(/C(C)=N/OCc2ccc(-c3ccccc3)c(C)c2)ccc1CN1CC[C@@H](C(=O)O)C1` [Compound 29], for which the EC50 in series [4] (setting [9]) came to 169 nM; in series [2], 87.2 nM.

The EC50 is the concentration needed to bring the measured effect to its halfway point. Broadly, the AUC(0-t) is exposure summed from dosing to a finite time, without extrapolation to infinity. A higher AUC(0-t) goes with high exposure. By Cmax is commonly meant the maximum level reached in the sampled fluid or tissue. Broadly, the half-life is the time in which the quantity being followed falls by half. A higher half-life goes with slow decline. What is called Tmax is the time from dosing to the highest level. The bioavailability is the share of a dose that reaches the circulation, judged against a reference dose that is usually intravenous. Higher therefore signals good availability.
